Reference: patent publication US9732037B2, “2-aminopyridine-based selective neuronal nitric oxide synthase inhibitors” (Northwestern University, priority 2013, dated 2017)
pKi: −log10 of the molar value.

Columns and labels:
Assay type in all cases: biochemical
murine iNOS = murine iNOS (Mus musculus (Mouse), UniProt P29477); assay: NOS inhibition assay, iNOS; details: for pKi: murine iNOS, KM 8.2 μM, Ki = IC50/(1 + [S]/KM); for Selectivity i/n: ratio of Ki (iNOS) to nNOS
Excerpt: (§1) Nitric oxide formation from NOS was monitored using literature techniques.

rat nNOS = rat nNOS (Rattus norvegicus (Rat), UniProt P29476); assay: NOS inhibition assay, nNOS; details: KM 1.3 μM, Ki = IC50/(1 + [S]/KM)
Excerpt: as §1

bovine eNOS = bovine eNOS (Bos taurus (Bovine), UniProt P29473); assay: NOS inhibition assay, eNOS; details: for pKi: bovine eNOS, KM 1.7 μM, Ki = IC50/(1 + [S]/KM); for Selectivity e/n: ratio of Ki (eNOS) to nNOS
Excerpt: as §1

Row | SMILES | pKi (murine iNOS) | pKi (rat nNOS) | pKi (bovine eNOS) | Selectivity i/n (murine iNOS) | Selectivity e/n (bovine eNOS)
1 | Cc1cc(N)nc(COc2cccc(OCCCN)c2)c1 [Compound 1] | 5.07 | 7.22 | 4.74 | – | –
2 | Cc1cc(N)nc(COc2cccc(OCc3ccncc3)c2)c1 [Compound 2] | 4.57 | 6.21 | 4.20 | – | –
3 | Cc1cc(N)nc(COc2cccc(OCC3CCNCC3)c2)c1 [Compound 3] | 4.77 | 6.93 | 4.55 | – | –
4 | Cc1cc(N)nc(COC[C@@H]2C[C@@H](OCc3cc(C)cc(N)n3)CN2)c1 [Compound 6] | 5.64 | 7.59 | 5.66 | 87 | 84
5 | Cc1cc(N)nc(COC[C@H]2C[C@@H](OCc3cc(C)cc(N)n3)CN2)c1 [Compound 7] | 5.25 | 7.47 | 5.46 | 164 | 102
6 | Cc1cc(N)nc(COC[C@@H]2C[C@H](OCc3cc(C)cc(N)n3)CN2)c1 [Compound 8] | 5.72 | 7.51 | 5.63 | 61 | 76
7 | Cc1cc(N)nc(COC[C@H]2C[C@H](OCc3cc(C)cc(N)n3)CN2)c1 [Compound 9] | 5.53 | 8.00 | 5.16 | 295 | 693
8 | Cc1cc(N)nc(COCCOC[C@@H]2C[C@@H](OCc3cc(C)cc(N)n3)CN2)c1 [Compound 10] | 5.64 | 7.15 | 5.20 | 33 | 89
9 | Cc1cc(N)nc(COCCOC[C@H]2C[C@@H](OCc3cc(C)cc(N)n3)CN2)c1 [Compound 11] | 4.87 | 6.70 | 5.03 | 68 | 46
10 | Cc1cc(N)nc(CO[C@H]2CN[C@H](COCCOCc3cccc(F)c3)C2)c1 [Compound 12] | 5.23 | 6.82 | 5.10 | 38 | 52
11 | Cc1cc(N)nc(CO[C@H]2CN[C@@H](COCCOCc3cccc(F)c3)C2)c1 [Compound 13] | 5.07 | 6.48 | 4.93 | 26 | 35
